Test results taken from patent US20090291905A1, “FUNGAL PHYTOTOXIN FUSICOCCIN FOR THE TREATMENT AND DIAGNOSIS OF COAGULATION-CORRELATED PATHOLOGIES” (priority 2008, published 2009).
Square brackets hold non-standard residues; d marks the D form. Primed or numbered codes have the meaning given here. Ends that are not written are not given here. * marks the point of attachment. Myristoyl = CCCCCCCCCCCCCC(=O)*; pS′ = not defined here

Columns and labels:
[1] = target: T1, 14-3-3 proteins / bD15Lp peptide (last 15 amino acid residues of GPIbα) (UniProt P07359+P49106); assay: Binding of 32P-labelled 14-3-3 (GF14-6) to resin-bound bD15Lp phosphopeptide; settings: 10 μM FC; resin-bound radioactivity; no binding in the absence of FC
T1 construct: GST (pGEX-2TK, with protein kinase A site at the junction, 32P-labelled) (N); made in house; host or cells: E. coli (14-3-3); peptide synthesized by Neosystem
Method: (§1) Peptides were immobilized onto streptavidin-agarose resin and incubated with ^32P-labelled 14-3-3 in the absence or in the presence of 10 μM FC. After washing, radioactivity associated with the resin was measured. Data are the mean of three independent experiments.
(§2) 0.5 nmol of biotinylated peptides were immobilized onto 40 μl of streptavidin-agarose resin (Sigma-Aldrich) and incubated in 50 μl of buffer H with 3 μg of ^32P-labelled GF14-6 (1.4 kBq/μg) for 60 min at room temperature in the absence or in the presence of 10 μM FC. Resin was then centrifuged at 2000×g for 5 min and washed three times with 1 ml of buffer H. Resin-bound radioactivity was measured in a liquid scintillation β-counter Packard Tri Carb 2100TR (Canberra, Australia).
(§3) A phosphorylated biotinyl-peptide (bD15Lp), reproducing the last 15 amino acid residues of GPIbα, and containing the 14-3-3 binding sequence, was used in interaction studies with 14-3-3 proteins to verify the ability of FC to stimulate the interaction. The unphosphorylated corresponding peptide ([…]) and peptides reproducing the last 15 amino acids of the H^+-ATPase in unphosphorylated (bL15V) and phosphorylated form (bL15Vp) were used as control.
(§4) The peptides were immobilized onto a streptavidin-agarose resin and incubated with ^32P-labelled 14-3-3 proteins.

[2] = target: T2, 14-3-3 proteins / bL15Vp peptide (last 15 amino acids of the H+-ATPase) (Zea mays, UniProt P49106); assay: Binding of 32P-labelled 14-3-3 (GF14-6) to resin-bound bL15Vp phosphopeptide; settings: 10 μM FC; resin-bound radioactivity
T2 construct: GST (pGEX-2TK, with protein kinase A site at the junction, 32P-labelled) (N); made in house; host or cells: E. coli (14-3-3); peptide synthesized by Neosystem
T2 sequence (P49106 1-261): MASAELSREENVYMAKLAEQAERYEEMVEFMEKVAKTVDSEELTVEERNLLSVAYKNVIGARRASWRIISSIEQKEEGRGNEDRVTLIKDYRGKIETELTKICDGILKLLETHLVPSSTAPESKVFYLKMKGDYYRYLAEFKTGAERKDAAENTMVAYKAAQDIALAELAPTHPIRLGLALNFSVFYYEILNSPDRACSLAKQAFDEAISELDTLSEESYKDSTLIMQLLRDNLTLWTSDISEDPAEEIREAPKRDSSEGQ
Method: as §1, §2, §3, §4

[3] = target: T3, 14-3-3 proteins / GPIbα (UniProt P07359+P49106); assay: Overlay assay of 32P-14-3-3 on blotted platelet proteins; format: binding, human; settings: 10 μM FC; autoradiography
T3 construct: GST (pGEX-2TK, with protein kinase A site at the junction, 32P-labelled) (N); made in house; host or cells: E. coli (14-3-3 probe); GPIbα endogenous, from boiled human platelet suspension
Method: A: SDS-PAGE profile of platelet proteins. B: immunodecoration of GPIbα with anti-GPIbα ([…]) antidoby. C: overlay assay. Maize plasma membrane proteins (lanes 1, positive control) or platelet proteins (lanes 2) were separated by SDS-PAGE, blotted onto nitrocellulose membrane, incubated with ^32P-14-3-3 in the absence (−FC) or in the presence (+FC) of 10 μM FC and subjected to autoradiography as described in the Materials and Methods.
SDS-PAGE was performed as described by Laemmli (1970), in a Mini Protean apparatus (Bio-Rad). The overlay assay was carried out according to Fullone et al. (1998), with minor modifications. The GST-fused 14-3-3 was labelled with [γ^32P]-ATP on cAMP-dependent protein kinase phosphorylation site present at junction between GST and the cloned protein, ^32P-labelled GF14-6 was used as probe in the overlay experiments. 30 μl of platelet suspension (2.0×10^8/mi) was boiled in Laemmli loading buffer, separated on SDS-PAGE and blotted on nitrocellulose membrane by semidry electroblotting. 20 μg of maize plasma membrane proteins were used as positive control. […] Nitrocellulose membrane was extensively washed with buffer HT and radioactivity detected by autoradiography. […]

[4] = tested on: isolated human platelets; assay: Binding of [3H]FC to isolated human platelets; settings: 10 nM [3H]FC, displaced by 10 μM unlabelled FC; 1 h at 37° C.
Method: 30 μl of platelet suspension (2.0×10^8/ml) were incubated for 1 h at 37° C. with 5×10^5 dpm [^3H]FC in 100 μl PBS containing 5 mM MgCl2. Where indicated, 10 μM cold FC was added (+FC). Platelets were then sedimented by centrifugation and radioactivity measured by scintillation counting.
30 μl of platelet suspension (2.0×10^8/ml) were incubated for 1 h at 37° C. with 5×10^5 dpm [^3H]FC in 100 μl PBS containing 5 mM MgCl2. To calculate specific binding, control sample was incubated with 10 μM FC. Platelets were centrifuged at 2000 g for 4 min in a refrigerated microcentrifuge and extensively washed in PBS containing 5 mM MgCl2. 500 μl perchloric acid was then added and radioactivity was measured in a liquid scintillation β-counter.
In order to verify whether a FC binding activity is present in purified human platelets, a [^3H]FC analogue (Ballio et al., 1980) was utilised. 30 μl platelet suspension in PBS (2.0×10^8/ml) were incubated with 10 nM [^3H]FC, and after several washings, the platelet-associated radioactivity was measured. The specific [^3H]FC binding was evaluated by adding a saturating concentration of unlabelled FC.

[5] = tested on: platelet adhesion to immobilized vWF; assay: Platelet adhesion to immobilized vWF; format: cell-based, human; settings: platelets pre-incubated with FC
Method: 90 μl platelet suspension was incubated with purified vWF immobilized onto polystyrene wells. After washings, adherent platelets were determined measuring the endogenous acid phosphatase activity. +FC, platelets previously treated with 40 μM FC; +ADP, incubation in the presence of 50 μM ADP.
Platelet adhesion to immobilized vWF was performed in polystyrene microtitre plate wells as described by Lu et al. (1994) with minor modifications. Briefly, plate wells were coated overnight at 4° C. with 100 μl 15 μg/ml purified vWF and 15 μg/ml BSA. After three washes with PBS unbound sites were saturated with 200 μl of 2 mg/ml BSA for 2 h at RT. After three washings with PBS, wells were incubated with 90 μl platelet suspension (2.0×10^8/ml) previously treated with 40 μM FC. Where indicated, wells were preloaded with 50 μM ADP. After 1 h incubation at RT, non-adherent platelets were removed by 7 washings with a buffer 10 mM Hepes containing 145 mM NaCl, 5 mM KCl, 1 mM MgCl2, 2 mM CaCl2, 10 mM glucose, 3.5 mg/ml BSA, pH 7.35. The number of vWF-bound platelet was calculated by measurement of endogenous acid phosphatase using 130 μl/well of developing buffer (10 mM p-nitrophenyl phosphate, 0.1% Triton X-100, 50 mM sodium citrate, pH 5.5). After 1 h at 37° C. incubation, the reaction was stopped by the addition of 10 μl of 1 M NaOH/well and the plates were read at 405 nm on an automated plate reader. […]

[6] = tested on: platelet aggregation (PRP); assay: Platelet aggregation in PRP (turbidometric aggregometer); format: cell-based, human; settings: for Platelet agglutination/aggregation induced: different FC concentrations, ristocetin 1 mg/ml
Method: Aggregation was studied with PRP using a turbidometric aggregometer as described in the Materials and Methods. A: effect of different concentrations of FC and ristocetin 1.0 mg/ml. B: effect of 40 μM FC in the presence of the aggregation antagonist RGDS peptide. C: effect of 40 μM FC in the presence of the cell-permeable 14-3-3 competitor MPAC peptide.
Washed platelets were prepared from platelet-rich plasma (PRP) obtained from healthy donors who had not taken medication for at least 9 days before bleeding. Preparation of PRP was performed as described by Dai et al. (2005).
PRPs were preincubated at 37° C. with different FC concentrations and, when indicated 0.1 mM MPaC or 0.75 mM RGDS. Aggregation was measured using a turbidometric platelet aggregometer Chrono-log 560 CA (Chrono-log Corporation, Pa., USA). 500 μl PRP were placed in a cuvette at 37° C. under continuous stirring at 1000 rpm. Aggregation was expressed as percentage of change in light transmission, with the value for the blank sample (PPP, Platelet-Poor Plasma) set at 100% and 0% for PRP.
To determine whether the FC-promoted binding of platelets to vWF results in platelet aggregation, the effect of FC on platelet functionality was assayed using an optical aggregometer. […] To determine whether the FC effect involves 14-3-3 proteins, the MPAC peptide was tested in FC-induced platelet agglutination.

T3 sequence (P07359 17-652, one chain of several): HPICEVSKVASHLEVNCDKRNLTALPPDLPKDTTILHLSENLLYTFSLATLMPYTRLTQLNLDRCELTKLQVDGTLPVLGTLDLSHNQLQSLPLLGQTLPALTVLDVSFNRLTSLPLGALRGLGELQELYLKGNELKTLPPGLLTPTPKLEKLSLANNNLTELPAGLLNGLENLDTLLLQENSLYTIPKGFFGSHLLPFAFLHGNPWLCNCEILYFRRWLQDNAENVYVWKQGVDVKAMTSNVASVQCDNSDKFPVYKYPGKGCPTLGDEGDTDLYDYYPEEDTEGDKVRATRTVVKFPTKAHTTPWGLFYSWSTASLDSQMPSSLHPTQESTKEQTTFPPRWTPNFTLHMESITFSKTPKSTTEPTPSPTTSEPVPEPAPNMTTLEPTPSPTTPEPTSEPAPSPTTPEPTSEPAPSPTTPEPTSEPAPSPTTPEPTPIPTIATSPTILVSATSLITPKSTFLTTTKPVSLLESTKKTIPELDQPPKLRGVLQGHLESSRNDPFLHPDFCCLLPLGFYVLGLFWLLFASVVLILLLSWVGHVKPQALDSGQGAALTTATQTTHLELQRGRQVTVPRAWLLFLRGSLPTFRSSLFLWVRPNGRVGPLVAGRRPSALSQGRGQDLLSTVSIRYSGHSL

| Molecule | Effect of FC on 14-3-3 binding to immobilized bD15Lp peptide [1] | Effect of FC on 14-3-3 binding to immobilized bL15Vp peptide [2] | Effect of FC on the interaction between 14-3-3 proteins and GPIbα (135 kDa band) [3] | Specific [3H]FC binding to platelets [4] | Number of platelets adherent to vWF ([5]; in the presence of 50 μM platelet agonist ADP (+ADP)) | Number of platelets adherent to vWF ([5]; resting platelets (−ADP)) | FC concentration giving maximum agglutination ([6]; PRP, 37° C.) [µM] | Platelet agglutination/aggregation induced ([6]; PRP, 37° C.) | Inhibition of FC-induced platelet aggregation ([6]; 40 μM FC, 0.1 mM MPαC or 0.75 mM RGDS) |
| --- | --- | --- | --- | --- | --- | --- | --- | --- | --- |
| C=CC(C)(C)OC[C@H]1O[C@H](O[C@@H]2C3=C([C@H](C)COC(C)=O)C[C@H](O)[C@]3(C)/C=C3/[C@@H](COC)CC[C@H]3[C@@H](C)[C@H]2O)[C@H](O)[C@@H](OC(C)=O)[C@@H]1O [FC, fusicoccin] | in the presence of the toxin binding is generated | strongly stimulated | the interaction is increased | platelets possess specific FC binding activity | significantly increased | significantly increased | 40 | slight but reproducible agglutination in a dose-dependent manner |  |
| C13H27CONH-Ser-lle-Arg-Tyr-Ser-Gly-His-pSer-Leu (Myristoyl-SIRYSGH[pS′]L) [MPαC, reference compound] |  |  |  |  |  |  |  |  | completely inhibits FC effect |
| ristocetin [reference compound] |  |  |  |  |  |  |  | rapid platelet agglutination |  |
